# From patent US7786141B2 (Vertex Pharmaceuticals Incorporated, priority 2004, dated 2010)
# How the values were obtained:
# M4 muscarinic receptor = molecular target: T1, M4 muscarinic receptor (Homo sapiens, UniProt P08173); test: Functional mobilization of intracellular calcium (FLIPR) in M4-CHO cells; assay type: cell-based; details: M4 receptor, calcium mobilization; for Emax: read-out: M4 Efficacy
# T1 construct: expressed in transfected cells; host or cells: CHO (M4-CHO)
# T1 sequence (P08173 1-479): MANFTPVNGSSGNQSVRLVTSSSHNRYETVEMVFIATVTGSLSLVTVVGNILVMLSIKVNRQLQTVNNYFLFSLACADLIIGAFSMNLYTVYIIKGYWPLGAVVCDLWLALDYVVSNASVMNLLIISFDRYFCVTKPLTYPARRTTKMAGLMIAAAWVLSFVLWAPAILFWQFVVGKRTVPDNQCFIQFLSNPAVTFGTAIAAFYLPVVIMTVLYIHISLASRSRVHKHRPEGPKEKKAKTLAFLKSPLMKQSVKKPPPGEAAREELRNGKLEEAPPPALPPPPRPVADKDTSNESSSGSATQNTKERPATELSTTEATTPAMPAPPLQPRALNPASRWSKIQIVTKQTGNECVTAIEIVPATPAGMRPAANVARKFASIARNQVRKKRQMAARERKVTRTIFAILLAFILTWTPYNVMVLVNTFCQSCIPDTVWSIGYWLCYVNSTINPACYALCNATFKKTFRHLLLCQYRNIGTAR
# Summary of the method: (§1)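 Steps: seed M1- or M4-CHO cells 18-24 hrs ahead; load calcium dye with 1 mM probenecid; add test compound (0.5% DMSO final), either alone for agonism or 15 min before EC80 carbachol for inhibition; record FLIPR fluorescence for 60 sec.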
# M1 muscarinic receptor = molecular target: T2, M1 muscarinic receptor (Homo sapiens, UniProt P11229); test: Functional mobilization of intracellular calcium (FLIPR) in M1-CHO cells; assay type: cell-based; details: M1 receptor, calcium mobilization; for Emax: read-out: M1 Efficacy
# T2 construct: expressed in transfected cells; host or cells: CHO (M1-CHO)
# T2 sequence (P11229 1-460): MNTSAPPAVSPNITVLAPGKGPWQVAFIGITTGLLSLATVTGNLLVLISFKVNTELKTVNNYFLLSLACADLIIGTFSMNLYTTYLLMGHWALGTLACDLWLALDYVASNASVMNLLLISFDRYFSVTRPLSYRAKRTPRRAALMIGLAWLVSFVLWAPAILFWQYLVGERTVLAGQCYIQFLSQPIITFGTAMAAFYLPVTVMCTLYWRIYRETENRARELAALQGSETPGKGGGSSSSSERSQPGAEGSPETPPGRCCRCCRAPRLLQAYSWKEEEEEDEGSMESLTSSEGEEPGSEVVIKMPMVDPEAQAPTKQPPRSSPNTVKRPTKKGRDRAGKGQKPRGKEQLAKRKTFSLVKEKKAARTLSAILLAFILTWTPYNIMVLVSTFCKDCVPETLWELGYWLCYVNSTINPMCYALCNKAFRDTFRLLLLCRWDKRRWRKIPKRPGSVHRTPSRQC
# Summary of the method: as §1
Compound,M4 Activity (M4 muscarinic receptor),Emax (M4 muscarinic receptor) [%],M1 Activity (M1 muscarinic receptor),Emax (M1 muscarinic receptor) [%],M4 Efficacy (M4 muscarinic receptor),M1 Efficacy (M1 muscarinic receptor)
O=C1CC2(CCN(C[C@@H]3C[C@H]4C=C[C@H]3C4)CC2)c2ccccc21 [compound 238],x (activity was measured to be greater than 1.0 μM),< 65,x (activity was measured to be greater than 1.0 μM),< 65,,
CC(=O)N1CC2(CCN(C3CCC[C@@H](C)C3)CC2)c2cc(F)ccc21 (stereo partly drawn) [compound 240],x (activity was measured to be greater than 1.0 μM),> 85,xx (activity was measured to be between 0.1 μM and 1.0 μM),65 to 85,,
Cc1ccc2c(c1)C1(CCN(CC3CCC4CCC3C4)CC1)CN2 (stereo not drawn) [compound 241],x (activity was measured to be greater than 1.0 μM),> 85,xx (activity was measured to be between 0.1 μM and 1.0 μM),< 65,,
O=C1CC2(CCN(C3CCCCCC3)CC2)c2ccccc2N1 [compound 242],xx (activity was measured to be between 0.1 μM and 1.0 μM),> 85,xxx (activity was measured to be less than 0.1 μM),65 to 85,,
O=C(O[C@@H]1CCOC1)N1CC2(CCN(C3CC4CCC(C3)N4C(=O)O[C@@H]3CCOC3)CC2)c2cc(F)ccc21 (stereo partly drawn) [compound 243],x (activity was measured to be greater than 1.0 μM),,xxx (activity was measured to be less than 0.1 μM),,xx (efficacy was calculated to be between 85% and 65%),xx (efficacy was calculated to be between 85% and 65%)
c1ccc2c(c1)NCC21CCN(C2CCC3CCC2C3)CC1 (stereo not drawn) [compound 244],x (activity was measured to be greater than 1.0 μM),65 to 85,xx (activity was measured to be between 0.1 μM and 1.0 μM),65 to 85,,
CCOC(=O)N1CCC(N2CCC3(CC2)CN(C(C)=O)c2ccc(C4CC4)cc23)CC1 [compound 245],xx (activity was measured to be between 0.1 μM and 1.0 μM),> 85,xx (activity was measured to be between 0.1 μM and 1.0 μM),< 65,,
CC(C)C(=O)N(C)[C@H]1CC2(CCN(C[C@H]3C[C@H]4CC[C@H]3C4)CC2)c2ccccc21 [compound 246],xx (activity was measured to be between 0.1 μM and 1.0 μM),> 85,xx (activity was measured to be between 0.1 μM and 1.0 μM),< 65,,
CC(C)(C)COC(=O)N1C2CCC1CC(N1CCC3(CC1)COc1ccc(F)cc13)C2 (stereo not drawn) [compound 247],x (activity was measured to be greater than 1.0 μM),> 85,xx (activity was measured to be between 0.1 μM and 1.0 μM),65 to 85,,
CC(=O)N1CC2(CCN(C3CCCCCCC3)CC2)c2cc(F)ccc21 [compound 248],x (activity was measured to be greater than 1.0 μM),< 65,xx (activity was measured to be between 0.1 μM and 1.0 μM),65 to 85,,
CCOC(=O)N1CCC(N2CCC3(CC2)CN(CC(C)=O)c2ccc(F)cc23)CC1 [compound 249],x (activity was measured to be greater than 1.0 μM),65 to 85,x (activity was measured to be greater than 1.0 μM),65 to 85,,
CCOC(=O)N1CCC(CN2CCC3(CC2)C[C@H](NC(C)=O)c2ccccc23)CC1 [compound 250],x (activity was measured to be greater than 1.0 μM),65 to 85,xx (activity was measured to be between 0.1 μM and 1.0 μM),65 to 85,,
CC(=O)N1CC2(CCN(C3CC[C@@H]4CC[C@@H]3C4)CC2)c2cc(F)ccc21 (stereo partly drawn) [compound 251],x (activity was measured to be greater than 1.0 μM),65 to 85,xx (activity was measured to be between 0.1 μM and 1.0 μM),65 to 85,,
CCCOC(=O)N1CCC(N2CCC3(CC2)CN(C(C)=O)c2ccc(C)cc23)CC1 [compound 252],x (activity was measured to be greater than 1.0 μM),65 to 85,x (activity was measured to be greater than 1.0 μM),< 65,,
CCOC(=O)N1CCC(N2CCC3(CC2)CN(C(C)=O)c2ccc(-c4ccc(C#N)cc4)cc23)CC1 [compound 253],x (activity was measured to be greater than 1.0 μM),65 to 85,xx (activity was measured to be between 0.1 μM and 1.0 μM),65 to 85,,
CCOC(=O)N1CCC(N2CCC3(CC2)CN(C(=O)C2CCC2)c2ccc(F)cc23)CC1 [compound 254],x (activity was measured to be greater than 1.0 μM),65 to 85,x (activity was measured to be greater than 1.0 μM),65 to 85,,
CCNC(=O)N1CC2(CCN(C3CC4CCC(C3)N4C(=O)OCC)CC2)c2cc(F)ccc21 (stereo not drawn) [compound 255],x (activity was measured to be greater than 1.0 μM),< 65,x (activity was measured to be greater than 1.0 μM),< 65,,
CCOC(=O)N1CCC(CN2CCC3(CC2)CN(C(C)=O)c2ccc(Cl)cc23)CC1 [compound 256],xx (activity was measured to be between 0.1 μM and 1.0 μM),< 65,xx (activity was measured to be between 0.1 μM and 1.0 μM),< 65,,
Clc1ccc2c(c1)C1(CCN(C3CCOCC3)CC1)CO2 [compound 257],x (activity was measured to be greater than 1.0 μM),< 65,x (activity was measured to be greater than 1.0 μM),> 85,,
O=C(OC1CCCC1)N1C2CCC1CC(N1CCC3(CCc4ccccc43)CC1)C2 (stereo not drawn) [compound 258],x (activity was measured to be greater than 1.0 μM),< 65,x (activity was measured to be greater than 1.0 μM),65 to 85,,
O=C1Nc2ccccc2C12CCN(C1CC3CCC1C3)CC2 (stereo not drawn) [compound 259],x (activity was measured to be greater than 1.0 μM),< 65,x (activity was measured to be greater than 1.0 μM),65 to 85,,
CCOC(=O)N1CCC(N2CCC3(CC2)CN(C(=O)c2ccncc2)c2ccc(F)cc23)CC1 [compound 260],x (activity was measured to be greater than 1.0 μM),< 65,xxx (activity was measured to be less than 0.1 μM),65 to 85,,
CC(=O)N[C@H]1CC2(CCN(C3CCCCCCC3)CC2)c2ccccc21 [compound 261],x (activity was measured to be greater than 1.0 μM),< 65,xx (activity was measured to be between 0.1 μM and 1.0 μM),< 65,,
CCOC(=O)N1CCC(N2CCC3(CC2)CN(C(=O)c2ccccc2OC)c2ccc(F)cc23)CC1 [compound 262],x (activity was measured to be greater than 1.0 μM),< 65,x (activity was measured to be greater than 1.0 μM),< 65,,
C1=C[C@H]2C[C@H]1C[C@@H]2CN1CCC2(CCc3ccccc32)CC1 [compound 263],xxx (activity was measured to be less than 0.1 μM),< 65,xxx (activity was measured to be less than 0.1 μM),< 65,,
COCCOC(=O)N1CCC(N2CCC3(CC2)CN(C(=O)N(C)C)c2ccc(F)cc23)CC1 [compound 265],xx (activity was measured to be between 0.1 μM and 1.0 μM),< 65,xx (activity was measured to be between 0.1 μM and 1.0 μM),< 65,,
CCCOC(=O)N1CCCC(N2CCC3(CC2)CN(C(C)=O)c2ccc(F)cc23)CC1 (stereo not drawn) [compound 266],x (activity was measured to be greater than 1.0 μM),< 65,x (activity was measured to be greater than 1.0 μM),< 65,,
